“Also recorded” adds a separate entry of the source. Read-outs that look alike come from different tables or passages of the source. Where a SMILES comes first, the peptide text is derived from it. [ ]: non-standard residue; d: D form. dNle = CCCC[C@@H](N)C(=O)O; Ahx = NCCCCCC(=O)O; βAla = NCCC(=O)O
How the values were obtained:
[1] = in vitro; details: human, microsomes
Description: (§1) For HLM and MLM stability studies, each compound was incubated with the liver microsome mixture for up to an hour at 37 C in the presence of NADPH.
(§2) After the incubations, the reactions were stopped and the compounds were analyzed according to the method developed for each.

[2] = tested on: SSP-25 cells; assay: xCELLigence cell death assay in SSP-25 cells (cellular assay for RAD51 inhibition); format: cell-based; details: concentration gradient added at 20 hour mark, only values with R^>0.85 shown
Description: The efficacy of the peptides described herein was assessed by their ability to cause death in SSP-25 cells, which have amplification of RAD51 and are dependent on its activity.
First, 5,000 SSP25 cells were plated, and adherence and growth was measured for 20 hours using live measurements of current impedance through the plate using the xCELLigence™ instrument. At the 20 hour mark, a concentration gradient of each compound or a PBS control was added to the SSP-25 cells, which were cultured in […] RMPI media with 10% FBS. […] Only values with confidence and R^>0.85 are shown.

[3] = in vitro; details: mouse, serum
Description: Serum stability data was obtained using the appropriate animal serum, each incubated with the compound for up to two hours at 37 C.

[4] = in vitro; details: mouse, microsomes
Description: as §1, §2

[5] = tested on: fresh human RBCs; format: cell-based
Description: To assess the nonspecific lytic properties of each compounds disclosed herein, each mentioned compound was tested for hemolytic properties against fresh human RBCs. Briefly, donor blood was drawn into a K2EDTA anticoagulant tube from multiple O+ donors. The blood was washed 3 times in PBS. RBCs were diluted to 2% in PBS and compounds were added at various concentrations. Samples were incubated at 37 C for 1 hr, then centrifuged at 2200 rpm for 5 min. Supernatants were measured for absorbance at 450 nm or 405 nm. The percentage hemolysis was calculated as lysis relative to 1% Triton X-100 incubation.

[6] = Mouse pharmacokinetics, IV and IP dosing; format: in vivo, mice; details: for AUC(0-inf) / AUC(0-t) / C0 / MRT inf / clearance / half-life / Vd: in vivo
Description: The pharmocokinetic parameters in mice by both intravenous (IV) and intraperitoneal (IP) dosing, as well as the serum and microsome stability for each of compound 22, 23, 24, and 25 was determined. Bioanalytical methods were developed for each compound using an LC-MS/MS method with LLOQ>100 ng/ml.
For in-vivo PK work, at least 3 mice were used per timepoint. For each compound, the animals were injected either IV or IP with the compound. IV injections used 1 mg/kg, and IP injections were at 15 mg/kg. Blood was collected at the indicated timepoints and analyzed according to the bioanalytical method developed.

[7] = tested on: SSP25 cells; assay: xCELLigence cell death assay with intracellular calcium chelators; format: cell-based; details: relative to compound alone
Description: To investigate the hypothesis that peptide treatment of cells causes cell death via increases in intracellular free calcium levels, Compound 1 alone and in combination with two different intracellular calcium chelators (1,2-Bis(2-aminophenoxy)ethane-N,N,N′,N′-tetraacetic acid tetrakis(acetoxymethyl ester) aka “BAPTA-AM”, and ammoniated ruthenium oxychloride aka “ruthenium red”) was tested in an xCELLigence™ cell death assay as in Example 1. The intracellular calcium chelators alone were also evaluated on the cells.

[8] = tested on: A549 cells; assay: Intracellular calcium imaging with Fluo-2-AM; format: cell-based; details: 30 μM compound, pre-incubation with 2.5 μM Fluo-2-AM
Text: Timestamps for the duration of the experiment are indicated in each panel.

[9] = tested on: A549 cells; assay: A549 cell growth/death, xCELLigence and microscopy; format: cell-based; details: xCELLigence, concentration gradient
Description: To assess the growth inhibitory properties of compounds disclosed herein, 10 μM of Compound 1 was tested against a PBS mock treatment for growth of A549 cells using microscopy at the indicated timepoints shown in the top right corner of each panel of FIG. 2. […] First, 5,000 A549 cells were plated, and adherence and growth was measured for 20 hours using live measurements of current impedance through the plate using the xCELLigence™ instrument. At the […] mark, a concentration gradient of Compound 1 or a PBS control was added to the A549 cells, which were cultured in 100 μL DMEM media with 10% FBS.

[10] = tested on: SSP25 cells; assay: xCELLigence cell death assay with necroptosis or apoptosis inhibitor; format: cell-based; details: for cell death with added necroptosis inhibitor Necrostatin: 40 μM compound + 50 μM Necrostatin; for cell death with added apoptosis inhibitor z-VAD: 40 μM compound + 100 μM z-VAD
Description: Further experiments were performed to elucidate the method of cell death induced by Compound 1. In one experiment, xCELLIGENCE cell death assays as in Examples 1 and 5 were performed, treating with either a necroptosis inhibitor (Necrostatin, 50 μM) alone or in combination with Compound 1 (40 μM). In another experiment, xCELLIGENCE cell death assays as in Examples 1 and 5 were performed, treating with either a apoptosis inhibitor (z-VAD, 100 μM) alone or in combination with Compound 1 (40 μM).

[11] = tested on: A549 xenograft; assay: A549 xenograft in athymic nu/nu mice, Compound 1 IT and IP; format: in vivo; details: for tumor volume / size, intra-tumoral dosing: 50 microliters of 10 or 20 mg/ml IT, day 0, day 3 and every other day
Description: Female athymic nu/nu mice (6-8 weeks old) were purchased from Simonsen labs (n=12) and were housed at the Murigenics vivarium in Vallejo. The mice were acclimated to the setting of the vivarium for 5 days and maintained on a standard chow diet; 12:12 dark/light cycle; and group housed (3 mice per cage) in HEPA-filtered cages. After acclimation, each mouse was injected subcutaneously (lower left abdominal flank) with 5×10^6 A549 (ATCC: CCL-185) cells mixed with 1:1 (v/v) with Matrigel solution. When the tumors reached a volume of—100 mm3, the mice were divided into separate treatment groups for the desired treatments. Experiments using both intra-tumoral (IT) and intraperitoneal (IP) administration were performed and the data are reported in FIGS. 10 and 11.
Mice prepared as described above were divided into 4 groups: • Group 1: received an intra-tumoral injection of 50 microliters of Phosphate Buffered Saline (mock) (n=3) • Group 2: received an intra-tumoral injection of 50 microliters of 10 mg/ml Compound 1 in Phosphate Buffered Saline (n=3) • Group 3: received an intra-tumoral injection of 50 microliters of 20 mg/ml Compound 1 in Phosphate Buffered Saline (n=3)
The 50 microliter injections were carried out with a (30 g needle). The injections were administered on day zero and then again on day 3, and every other day. The length (L) and the width (W) of the tumor mass was measured with a Vernier caliper and the tumor volume (V) was calculated as V=(L×WA2)/2. The relative tumor volume of each tumor mass on each measurement day was normalized against the initial volume of the same mass on day zero right before initiation of injections. […]
The injections were carried out with a 30 g needle. […] The length (L) and the width (W) of the tumor mass was measured with a Vernier caliper and the tumor volume (V) was calculated as V=(L×WA2)/2. […]

[12] = tested on: SSP25 cells; assay: Selective killing, Cytation imaging of SSP25 cells; format: cell-based; details: 10 μM
Description: To assess the specificity of compounds disclosed herein in targeting cancers with overexpression of RAD51, Compound 1 was tested against primary fibroblasts and SSP25 cells (cholangiocarcinoma cell line) (FIG. 5). First, 5,000 cells were incubated in 96-well culture plates overnight. Cells were grown in DMEM or RPMI, respectively, with 10% FBS, and […] was added to a concentration of 10 μM and imaging commenced using a Cytation™ instrument using approximately 5 minute time points. DAPI was used to visualize the nuclei and mitotracker-red was used to observe mitochondria. […] Furthermore, cell morphology was affected within 5 minutes of imaging, and the macrobubble phenotype was stable for further periods of time.

[13] = ip, 15 mg/kg, 15 mg/kg IP, read-out: t½ (converted)
[14] = ip, 15 mg/kg, IP (15 mg/kg), read-out: Half-life Mouse IP
[15] = iv, 1 mg/kg, 1 mg/kg IV, read-out: Vss
[16] = iv, 1 mg/kg, 1 mg/kg IV, read-out: Vz
[17] = iv, 1 mg/kg, 1 mg/kg IV, read-out: t½ (converted)
[18] = iv, 1 mg/kg, IV (1 mg/kg), read-out: Half-life Mouse IV

Molecule: CCCC[C@@H](NC(=O)[C@@H](CC(C)C)NC(C)=O)C(=O)N[C@H](CCCNC(=N)N)C(=O)N[C@H](C)C(=O)N[C@@H](C(=O)N[C@H](CCCNC(=N)N)C(=O)N[C@H](CC(C)C)C(=O)N[C@H](CCCNC(=N)N)C(=O)N[C@@H](C(=O)NCCC(=O)N[C@H](CC(C)C)C(=O)N[C@H](CCCNC(=N)N)C(=O)NCCCCCC(=O)N[C@H](CCCNC(=N)N)C(=O)NCCCCCC(=O)N[C@H](CCCNC(=N)N)C(=O)NCCCCCC(=O)N[C@H](CCCNC(=N)N)C(=O)NCCCCCC(=O)N[C@H](CCCNC(=N)N)C(=O)NCCCCCC(=O)N[C@H](CCCNC(=N)N)C(=O)NCCCCCC(=O)N[C@H](Cc1ccc(O)cc1)C(N)=O)C(C)C)C(C)C [Compound 24, Ac-l{d-norLeucine}ravrlrv[beta-ALA]lr(Ahx)r(Ahx)r(Ahx)r(Ahx)r(Ahx)r(Ahx)y-NH2] (Ac-[dL][dNle][dR][dA][dV][dR][dL][dR][dV][βAla][dL][dR][Ahx][dR][Ahx][dR][Ahx][dR][Ahx][dR][Ahx][dR][Ahx][dY]-NH2)
- half-life [1]: 0.947 h
- IC50 [2]: 6.2 µM
- half-life [3]: 4.62 h
- half-life [4]: 1.93 h
- % Hemolysis (250 uM) ([5]; red cells of human, 1 h, 250): 3%
- AUC Extr ([6]; 1 mg/kg IV): 28.8%
- Vss ([6]; 15 mg/kg IP): 2.95 L/kg
- AUC(0-inf) ([6]; 1 mg/kg IV): 528 ng·h/mL
- AUC(0-t) ([6]; 1 mg/kg IV): 375 ng·h/mL
- C0 ([6]; 1 mg/kg IV): 683 ng/mL
- MRT inf ([6]; 1 mg/kg IV): 0.779 h
- clearance ([6]; 1 mg/kg IV): 31.7 mL/min/kg
- AUC(0-inf) ([6]; 15 mg/kg IP): 1010 ng·h/mL
- MRT inf ([6]; 15 mg/kg IP): 17.9 h
- half-life [6, 13]: 1.89 h
- half-life [6, 14]: 1.88 h
- Vd [6, 15]: 1.48 L/kg
- Vd [6, 16]: 1.51 L/kg
- half-life [6, 17]: 0.549 h
- half-life [6, 18]: 0.549 h

Molecule: CCCC[C@@H](NC(=O)[C@@H](CC(C)C)NC(C)=O)C(=O)N[C@H](CCCNC(=N)N)C(=O)N[C@H](CO)C(=O)N[C@@H](C(=O)N[C@H](CCCNC(=N)N)C(=O)N[C@H](CC(C)C)C(=O)N[C@H](CCCNC(=N)N)C(=O)N[C@@H](C(=O)NCC(=O)N[C@H](CC(C)C)C(=O)N[C@H](CCCNC(=N)N)C(=O)NCCCCCC(=O)N[C@H](CCCNC(=N)N)C(=O)NCCCCCC(=O)N[C@H](CCCNC(=N)N)C(=O)NCCCCCC(=O)N[C@H](CCCNC(=N)N)C(=O)NCCCCCC(=O)N[C@H](CCCNC(=N)N)C(=O)NCCCCCC(=O)N[C@H](CCCNC(=N)N)C(N)=O)C(C)C)C(C)C [Compound 25, Ac-l{d-norLeucine}rsvrlrvGlr(Ahx)r(Ahx)r(Ahx)r(Ahx)r(Ahx)r-NH2]
- half-life [1]: 1.36 h
- IC50 [2]: 14 µM
- half-life [3]: > 8.33 h
- half-life [4]: 0.77 h
- % Hemolysis (250 uM) ([5]; red cells of human, 1 h, 250): 4%
- AUC Extr ([6]; 1 mg/kg IV): 16.8%
- Vss ([6]; 15 mg/kg IP): 3.41 L/kg
- AUC(0-inf) ([6]; 1 mg/kg IV): 308 ng·h/mL
- AUC(0-t) ([6]; 1 mg/kg IV): 254 ng·h/mL
- C0 ([6]; 1 mg/kg IV): 750 ng/mL
- MRT inf ([6]; 1 mg/kg IV): 0.551 h
- clearance ([6]; 1 mg/kg IV): 55.7 mL/min/kg
- AUC(0-inf) ([6]; 15 mg/kg IP): 831 ng·h/mL
- MRT inf ([6]; 15 mg/kg IP): 21.8 h
- half-life [6, 13]: 2.14 h
- half-life [6, 14]: 2.14 h
- Vd [6, 15]: 1.8 L/kg
- Vd [6, 16]: 1.99 L/kg
- half-life [6, 17]: 0.423 h
- half-life [6, 18]: 0.423 h

Molecule: Ac-lmrsvrlrvGlrkrrrrrrr-NH2 (Ac-[dL][dM][dR][dS][dV][dR][dL][dR][dV]G[dL][dR][dK][dR][dR][dR][dR][dR][dR][dR]-NH2) [Compound 1]
- IC50 [2]: 2.4 µM
- cell death with added calcium chelator BAPTA-AM ([7]; 10 μM compound + 10 μM BAPTA-AM): rescues cell death relative to compound alone; also recorded: addition of BAPTA-AM rescues cell death
- cell death with added calcium chelator ruthenium red ([7]; 10 μM compound + 40 μM Ruthenium red): rescues cell death relative to compound alone; also recorded: addition of ruthenium red rescues cell death
- intracellular calcium (Fluo-2 dye) [8]: accumulation of intracellular calcium
- effect on growth / cell death of A549 cells [9]: dose-dependent effect on the growth of A549 cells displaying acute cell death kinetics
- cell death with added necroptosis inhibitor Necrostatin [10]: addition of the inhibitor has no effect on the activity
- cell death with added necroptosis inhibitor Necrostatin ([10]; listed as compound 1): does not cause cell death through necroptosis or apoptosis
- cell death with added apoptosis inhibitor z-VAD [10]: addition of the inhibitor has no effect on the activity
- cell death with added apoptosis inhibitor z-VAD ([10]; listed as compound 1): does not cause cell death through necroptosis or apoptosis
- tumor volume / size, intra-tumoral dosing [11]: measurable decreases in tumor size as early as day 3
- tumor volume / size, intra-tumoral dosing ([11]; listed as compound 1): significant effects on tumor volume after only a few days of treatment
- tumor size, intra-peritoneal dosing ([11]; 125 microliters of 3 mg/ml IP, single dose on day seven): measurable decreases in tumor size as early as 3 days after injection (day 10)
- time until cell morphology was affected [12]: ≤ 5 minutes
- cell morphology / cell death in SSP25 cells ([12]; approx. 5 minute time points): drastically affected in SSP25 cells
- % Hemolysis (250 uM) [5]: 3%

— patent publication US12590126B2, “Compounds for selective disruption of protein-protein interactions” (SyntheX, Inc., priority 2017, dated 2026)
